In publication PMC12136037, “Type II kinase inhibitors that target Parkinson’s disease–associated LRRK2” (Science Advances, 2025):

Key:
Assay in all cases: DSF 100 kinase selectivity screen;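 further: compound tested at 20 µM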
Assay type in all cases: binding
[1] = molecular target: T1, ~100 representative kinases (Homo sapiens, UniProt P29317); details: Protein EPHA2; average of three replicates
T1 construct: Recombinant protein kinase domains with a concentration of 2 μM
In short: (§1)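 Each kinase domain, at 2 μM, is mixed with 20 μM test compound and SYPRO Orange in Hepes (20 mM, pH 7.5) with 500 mM NaCl. Temperature is then raised at 3°C/min and fluorescence-monitored unfolding yields the melting temperature change, ΔTm in degrees Celsius.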

[2] = molecular target: T2, ~100 representative kinases (Homo sapiens, UniProt P49761); details: Protein CLK3; average of three replicates
T2 construct: Recombinant protein kinase domains with a concentration of 2 μM
In short: as §1

[3] = molecular target: T3, ~100 representative kinases (Homo sapiens, UniProt P16083); details: protein NQO2; average of three replicates
T3 construct: Recombinant protein kinase domains with a concentration of 2 μM
T3 sequence (P16083 1-231): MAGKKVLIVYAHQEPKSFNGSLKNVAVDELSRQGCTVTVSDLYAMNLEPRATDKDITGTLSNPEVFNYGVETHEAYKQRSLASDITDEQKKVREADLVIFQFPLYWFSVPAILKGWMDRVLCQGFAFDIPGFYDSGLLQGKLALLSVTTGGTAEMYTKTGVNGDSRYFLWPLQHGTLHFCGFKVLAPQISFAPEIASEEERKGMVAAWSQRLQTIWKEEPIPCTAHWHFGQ
In short: as §1

[4] = molecular target: T4, ~100 representative kinases (Homo sapiens, UniProt Q5VT25); details: Protein CDC42BPA; average of three replicates
T4 construct: Recombinant protein kinase domains with a concentration of 2 μM
In short: as §1

[5] = molecular target: T5, ~100 representative kinases (Homo sapiens, UniProt Q8TF76); details: protein GSG2; average of three replicates
T5 construct: Recombinant protein kinase domains with a concentration of 2 μM
T5 sequence (Q8TF76 1-798): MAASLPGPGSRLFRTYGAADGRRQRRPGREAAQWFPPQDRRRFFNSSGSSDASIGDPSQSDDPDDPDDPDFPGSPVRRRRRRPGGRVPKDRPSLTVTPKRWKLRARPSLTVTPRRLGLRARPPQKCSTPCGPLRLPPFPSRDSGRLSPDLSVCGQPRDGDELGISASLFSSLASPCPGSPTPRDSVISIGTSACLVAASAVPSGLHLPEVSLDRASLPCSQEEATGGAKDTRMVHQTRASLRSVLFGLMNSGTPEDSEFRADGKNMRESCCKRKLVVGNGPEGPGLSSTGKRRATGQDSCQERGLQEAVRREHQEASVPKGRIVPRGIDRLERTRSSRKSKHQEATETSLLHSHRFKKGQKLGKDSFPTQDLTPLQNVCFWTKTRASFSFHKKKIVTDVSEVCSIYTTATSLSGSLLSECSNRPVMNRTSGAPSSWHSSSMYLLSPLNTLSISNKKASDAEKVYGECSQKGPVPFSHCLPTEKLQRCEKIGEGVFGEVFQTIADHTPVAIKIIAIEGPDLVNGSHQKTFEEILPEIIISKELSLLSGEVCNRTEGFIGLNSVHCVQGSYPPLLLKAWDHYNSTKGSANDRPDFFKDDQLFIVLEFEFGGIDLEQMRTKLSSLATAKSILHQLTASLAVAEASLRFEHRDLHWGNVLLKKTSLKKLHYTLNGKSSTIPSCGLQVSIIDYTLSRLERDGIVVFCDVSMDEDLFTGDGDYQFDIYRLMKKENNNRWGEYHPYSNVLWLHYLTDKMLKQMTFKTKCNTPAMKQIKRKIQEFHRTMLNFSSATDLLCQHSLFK
In short: as §1

[6] = molecular target: T6, ~100 representative kinases (Homo sapiens, UniProt Q6PHR2); details: Protein ULK3; DSF; average of three replicates
T6 construct: Recombinant protein kinase domains with a concentration of 2 μM
T6 sequence (Q6PHR2 1-472): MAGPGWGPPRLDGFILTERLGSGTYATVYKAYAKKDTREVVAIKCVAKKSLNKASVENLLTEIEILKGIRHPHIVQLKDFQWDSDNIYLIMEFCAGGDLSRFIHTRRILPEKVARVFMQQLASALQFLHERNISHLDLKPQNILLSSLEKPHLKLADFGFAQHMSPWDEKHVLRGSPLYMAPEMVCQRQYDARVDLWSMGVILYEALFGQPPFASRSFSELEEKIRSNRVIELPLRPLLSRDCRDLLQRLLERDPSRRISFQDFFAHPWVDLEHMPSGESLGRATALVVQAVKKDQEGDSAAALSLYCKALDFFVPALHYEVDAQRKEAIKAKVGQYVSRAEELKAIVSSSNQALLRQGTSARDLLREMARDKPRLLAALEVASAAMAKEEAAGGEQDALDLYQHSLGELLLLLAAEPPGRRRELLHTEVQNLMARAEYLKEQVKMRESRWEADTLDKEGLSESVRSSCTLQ
In short: as §1

[7] = molecular target: T7, ~100 representative kinases (Homo sapiens, UniProt P45983); details: protein MAPK8; average of three replicates
T7 construct: Recombinant protein kinase domains with a concentration of 2 μM
In short: as §1

[8] = molecular target: T8, ~100 representative kinases (Homo sapiens, UniProt O96013); details: protein PAK4; average of three replicates
T8 construct: Recombinant protein kinase domains with a concentration of 2 μM
In short: as §1

[9] = molecular target: T9, ~100 representative kinases (Homo sapiens, UniProt Q13627); details: Protein DYRK1A; average of three replicates
T9 construct: Recombinant protein kinase domains with a concentration of 2 μM
In short: as §1

T1 sequence (P29317 24-976): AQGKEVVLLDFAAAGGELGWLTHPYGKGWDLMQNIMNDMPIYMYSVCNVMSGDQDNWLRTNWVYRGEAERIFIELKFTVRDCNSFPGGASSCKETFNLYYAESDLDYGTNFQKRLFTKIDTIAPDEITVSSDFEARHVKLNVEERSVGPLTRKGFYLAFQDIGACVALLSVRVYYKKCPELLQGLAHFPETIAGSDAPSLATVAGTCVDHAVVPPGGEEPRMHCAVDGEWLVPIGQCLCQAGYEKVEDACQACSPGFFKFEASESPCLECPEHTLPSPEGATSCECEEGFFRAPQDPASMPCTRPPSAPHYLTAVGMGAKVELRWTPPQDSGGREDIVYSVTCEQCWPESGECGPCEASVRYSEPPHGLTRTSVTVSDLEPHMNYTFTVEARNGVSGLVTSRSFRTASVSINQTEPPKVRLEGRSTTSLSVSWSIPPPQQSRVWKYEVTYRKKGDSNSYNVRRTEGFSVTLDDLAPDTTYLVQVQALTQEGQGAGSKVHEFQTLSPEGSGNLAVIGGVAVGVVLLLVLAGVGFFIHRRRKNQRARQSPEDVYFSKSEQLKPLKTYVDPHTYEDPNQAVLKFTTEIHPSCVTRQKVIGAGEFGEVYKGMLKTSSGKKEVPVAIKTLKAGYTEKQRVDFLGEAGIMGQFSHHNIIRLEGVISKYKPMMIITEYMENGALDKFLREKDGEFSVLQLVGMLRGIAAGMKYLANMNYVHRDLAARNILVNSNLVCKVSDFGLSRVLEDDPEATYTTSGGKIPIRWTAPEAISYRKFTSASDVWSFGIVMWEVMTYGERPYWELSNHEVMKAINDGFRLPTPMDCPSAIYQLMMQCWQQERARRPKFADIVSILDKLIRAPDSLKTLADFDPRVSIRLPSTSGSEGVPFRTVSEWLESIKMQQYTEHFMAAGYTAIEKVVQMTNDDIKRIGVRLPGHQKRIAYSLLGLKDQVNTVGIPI
T4 sequence (Q5VT25 whole entry, the tested form may be a part): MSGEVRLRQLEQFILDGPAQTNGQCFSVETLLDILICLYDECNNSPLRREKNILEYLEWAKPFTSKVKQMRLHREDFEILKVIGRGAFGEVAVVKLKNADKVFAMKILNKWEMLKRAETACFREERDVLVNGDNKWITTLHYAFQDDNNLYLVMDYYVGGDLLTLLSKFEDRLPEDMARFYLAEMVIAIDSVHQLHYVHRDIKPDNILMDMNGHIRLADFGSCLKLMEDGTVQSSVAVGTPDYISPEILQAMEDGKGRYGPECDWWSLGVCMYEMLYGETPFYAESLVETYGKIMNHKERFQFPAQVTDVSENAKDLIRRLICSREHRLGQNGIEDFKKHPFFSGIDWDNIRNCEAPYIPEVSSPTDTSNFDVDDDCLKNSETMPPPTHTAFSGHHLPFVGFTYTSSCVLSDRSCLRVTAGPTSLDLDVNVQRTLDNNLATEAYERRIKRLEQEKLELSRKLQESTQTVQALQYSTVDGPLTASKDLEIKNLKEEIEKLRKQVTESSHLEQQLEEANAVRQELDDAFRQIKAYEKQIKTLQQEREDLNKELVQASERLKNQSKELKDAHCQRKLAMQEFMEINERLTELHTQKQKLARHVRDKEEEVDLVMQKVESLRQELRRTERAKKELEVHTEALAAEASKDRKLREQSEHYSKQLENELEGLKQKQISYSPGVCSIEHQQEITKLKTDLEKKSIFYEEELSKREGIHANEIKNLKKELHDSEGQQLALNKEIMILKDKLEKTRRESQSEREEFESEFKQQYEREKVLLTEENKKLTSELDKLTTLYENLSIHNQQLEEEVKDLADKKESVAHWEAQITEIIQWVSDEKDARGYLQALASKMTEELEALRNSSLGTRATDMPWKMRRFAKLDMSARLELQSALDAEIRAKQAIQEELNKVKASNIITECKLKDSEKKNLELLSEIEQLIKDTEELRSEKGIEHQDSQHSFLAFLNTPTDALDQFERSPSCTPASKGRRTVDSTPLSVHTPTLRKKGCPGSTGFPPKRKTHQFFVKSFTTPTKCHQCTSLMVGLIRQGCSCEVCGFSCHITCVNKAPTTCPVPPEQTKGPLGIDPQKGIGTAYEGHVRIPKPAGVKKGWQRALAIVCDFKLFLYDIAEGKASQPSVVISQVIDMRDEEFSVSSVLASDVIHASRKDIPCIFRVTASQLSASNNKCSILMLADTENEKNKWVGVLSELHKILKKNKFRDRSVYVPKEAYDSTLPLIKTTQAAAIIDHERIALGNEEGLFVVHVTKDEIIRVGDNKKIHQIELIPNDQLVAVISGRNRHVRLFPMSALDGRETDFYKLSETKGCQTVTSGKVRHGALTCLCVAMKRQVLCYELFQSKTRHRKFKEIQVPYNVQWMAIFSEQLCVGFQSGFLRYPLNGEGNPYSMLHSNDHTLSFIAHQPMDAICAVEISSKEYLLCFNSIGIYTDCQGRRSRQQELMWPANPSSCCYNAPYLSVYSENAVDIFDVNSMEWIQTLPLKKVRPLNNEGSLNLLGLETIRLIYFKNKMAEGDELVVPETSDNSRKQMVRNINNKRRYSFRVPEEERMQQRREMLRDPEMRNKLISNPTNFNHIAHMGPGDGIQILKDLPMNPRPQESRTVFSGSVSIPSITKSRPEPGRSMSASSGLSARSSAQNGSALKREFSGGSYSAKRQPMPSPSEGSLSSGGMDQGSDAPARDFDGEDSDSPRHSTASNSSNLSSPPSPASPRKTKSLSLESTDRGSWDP
T7 sequence (P45983 whole entry, the tested form may be a part): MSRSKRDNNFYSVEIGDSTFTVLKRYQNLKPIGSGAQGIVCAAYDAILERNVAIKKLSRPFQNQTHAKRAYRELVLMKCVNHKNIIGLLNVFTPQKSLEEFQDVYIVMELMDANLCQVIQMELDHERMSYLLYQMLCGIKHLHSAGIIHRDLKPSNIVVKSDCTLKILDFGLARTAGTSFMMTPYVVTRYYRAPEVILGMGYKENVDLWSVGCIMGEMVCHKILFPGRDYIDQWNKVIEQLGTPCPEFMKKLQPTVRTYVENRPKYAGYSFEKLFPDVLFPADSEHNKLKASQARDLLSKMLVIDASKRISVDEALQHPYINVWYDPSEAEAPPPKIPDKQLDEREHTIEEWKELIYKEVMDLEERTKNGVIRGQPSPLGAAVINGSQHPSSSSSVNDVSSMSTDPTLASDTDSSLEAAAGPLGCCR
T8 sequence (O96013 whole entry, the tested form may be a part): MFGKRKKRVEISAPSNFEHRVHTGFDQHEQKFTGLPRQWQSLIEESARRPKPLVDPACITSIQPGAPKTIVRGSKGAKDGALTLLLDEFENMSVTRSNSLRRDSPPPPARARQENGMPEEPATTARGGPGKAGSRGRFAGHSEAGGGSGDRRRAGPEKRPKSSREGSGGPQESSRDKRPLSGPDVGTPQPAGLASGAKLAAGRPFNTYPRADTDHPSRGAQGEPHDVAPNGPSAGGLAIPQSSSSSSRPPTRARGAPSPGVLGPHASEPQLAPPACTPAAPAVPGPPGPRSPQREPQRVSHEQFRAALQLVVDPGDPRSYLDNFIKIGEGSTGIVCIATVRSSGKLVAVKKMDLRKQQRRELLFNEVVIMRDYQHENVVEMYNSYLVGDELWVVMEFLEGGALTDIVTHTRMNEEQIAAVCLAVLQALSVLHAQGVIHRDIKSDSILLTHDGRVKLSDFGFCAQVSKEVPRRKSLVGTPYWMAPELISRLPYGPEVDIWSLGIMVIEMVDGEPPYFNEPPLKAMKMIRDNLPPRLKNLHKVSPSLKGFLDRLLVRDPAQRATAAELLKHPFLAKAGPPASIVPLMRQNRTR
T2 sequence (P49761 whole entry, the tested form may be a part): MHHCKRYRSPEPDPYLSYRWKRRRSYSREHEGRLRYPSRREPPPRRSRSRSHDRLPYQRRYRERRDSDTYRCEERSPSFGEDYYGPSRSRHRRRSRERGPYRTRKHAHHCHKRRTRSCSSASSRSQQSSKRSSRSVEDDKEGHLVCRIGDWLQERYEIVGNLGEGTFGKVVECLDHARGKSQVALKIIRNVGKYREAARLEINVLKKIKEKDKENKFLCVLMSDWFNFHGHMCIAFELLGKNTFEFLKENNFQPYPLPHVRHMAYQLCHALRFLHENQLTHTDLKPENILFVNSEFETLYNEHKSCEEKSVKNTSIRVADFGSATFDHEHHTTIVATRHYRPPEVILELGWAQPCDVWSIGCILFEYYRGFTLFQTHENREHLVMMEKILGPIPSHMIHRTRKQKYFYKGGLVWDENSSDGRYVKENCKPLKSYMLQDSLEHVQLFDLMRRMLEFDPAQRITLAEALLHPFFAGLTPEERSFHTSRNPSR

CCSc1nc(NC)c2c(-c3cccc(NC(=O)Nc4cc(C(C)(C)C)nn4-c4ccc(C)cc4)c3)c[nH]c2n1 [Compound 32]
dTm [1]: 0.36 K
dTm [2]: 0.50 K
dTm [3]: -0.0148 K
dTm [4]: 0.69 K
dTm [5]: 0.63 K
dTm [6]: 0.44 K
dTm [7]: 4.04 K
dTm [8]: 0.61 K
dTm [9]: 0.57 K
